Tests used:
corn = experiment: Test B pre/postemergence corn; type: in vivo, Zea mays
Procedure, shortened: (§1)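 Response is a visual 0-to-10 score relative to untreated plants, where 0 means no effect and 10 means complete control, taken twelve to sixteen days after application. Treatments went onto soil at planting and onto foliage of 1- to 4-leaf plants, using a surfactant-containing non-phytotoxic solvent.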

crabgrass = experiment: Test B pre/postemergence crabgrass; type: in vivo, Digitaria sanguinalis
Procedure, shortened: as §1

sugar beet = experiment: Test B pre/postemergence sugar beet; type: in vivo, Beta vulgaris
Procedure, shortened: as §1

rice = experiment: Test B flood test rice; type: in vivo, Oryza sativa; details: for Plant response rating, Rice (0 to 10 scale, 0 is no effect, 10 is complete control) / Rice plant response rating (0 to 10 scale, 0 is no effect, 10 is complete control): visual evaluation after twelve to sixteen days; for Rice plant response rating (0 to 10 scale, 0 is no effect, 10 is complete control): under heading Pre-emergence
Procedure, shortened: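 Plants were grown to the 2-leaf stage before treatment with test chemical, then held in a greenhouse for twelve to sixteen days. Injury was visually rated against untreated controls on a 0–10 scale, where 0 is no effect and 10 is complete control.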

[1] = Postemergence, Rate 62 g/ha, scale 0 to 10, 0 is no effect, 10 is complete control
[2] = Postemergence, Rate 125 g/ha, scale of 0 to 10 where 0 is no effect and 10 is complete control
[3] = Postemergence, Rate 250 g/ha, scale of 0 to 10, 0 is no effect, 10 is complete control
[4] = Postemergence, Rate 500 g/ha, scale of 0 to 10 where 0 is no effect and 10 is complete control
[5] = Preemergence, Rate 62 g/ha, scale 0 to 10 (0 no effect, 10 complete control)
[6] = Preemergence, Rate 125 g/ha, scale of 0 to 10 where 0 is no effect and 10 is complete control
[7] = Preemergence, Rate 250 g/ha, scale 0 to 10 (0 no effect, 10 complete control)
[8] = Preemergence, Rate 500 g/ha, scale of 0 to 10 where 0 is no effect and 10 is complete control
[9] = Rate 62 g/ha, flood test species, Pre-emergence
[10] = Rate 125 g/ha, flood test species
[11] = Rate 250 g/ha, Pre-emergence (flood test species), scale 0 to 10, 0 is no effect, 10 is complete control
[12] = Rate 500 g/ha, Pre-emergence section of Table B, 0 to 10 scale (0 no effect, 10 complete control)
[13] = Postemergence, Rate 250 g/ha, scale 0 to 10
[14] = Preemergence, Rate 250 g/ha, scale 0 to 10, 0 is no effect, 10 is complete control
[15] = Preemergence, Rate 500 g/ha, scale 0 to 10, 0 is no effect, 10 is complete control
[16] = Rate 62 g/ha, Postemergence, scale 0 to 10, 0 no effect, 10 complete control
[17] = Rate 125 g/ha, Postemergence, scale 0 to 10, 0 is no effect, 10 is complete control
[18] = Postemergence, Rate 1000 g/ha, scale 0 to 10 (0 no effect, 10 complete control)
[19] = Rate 1000 g/ha, Preemergence, scale 0 to 10 (0 no effect, 10 complete control)
[20] = Pre-emergence, Rate 1000 g/ha, scale 0 to 10 (0 no effect, 10 complete control)
[21] = Preemergence, Rate 250 g/ha, scale of 0 to 10 where 0 is no effect and 10 is complete control
[22] = Rate 125 g/ha, Postemergence, scale of 0 to 10 where 0 is no effect and 10 is complete control
[23] = Rate 250 g/ha, Postemergence, scale of 0 to 10 where 0 is no effect and 10 is complete control
[24] = Rate 250 g/ha, Pre-emergence, flood-test species, scale 0 to 10, 0 is no effect, 10 is complete control
[25] = Rate 500 g/ha, Pre-emergence, flood test species, scale 0 to 10 (0 no effect, 10 complete control)
[26] = Preemergence, Rate 62 g/ha, scale of 0 to 10 where 0 is no effect and 10 is complete control
[27] = Postemergence, Rate 125 g/ha, scale 0 to 10, 0 is no effect, 10 is complete control
[28] = Postemergence, Rate 250 g/ha, scale 0 to 10, 0 is no effect, 10 is complete control
[29] = Rate 62 g/ha, Postemergence, scale of 0 to 10 where 0 is no effect and 10 is complete control

## CCOC(Cn1c(=O)on(C(=O)N(c2ccc(F)cc2F)C(C)C)c1=O)OCC [Compound 630]
corn; [1]
  Plant response rating, Corn: 0
corn; [2]
  Plant response rating, Corn: 0
corn; [3]
  Corn plant response rating: 2
corn; [4]
  Plant response rating, Corn: 5
corn; [5]
  Corn plant response rating: 0
corn; [6]
  Corn plant response rating: 0
corn; [7]
  Plant response rating, Corn: 3
corn; [8]
  Plant response rating, Corn: 5
crabgrass; [1]
  Plant response rating, Crabgrass: 1
crabgrass; [2]
  Plant response rating, Crabgrass: 5
crabgrass; [3]
  Crabgrass plant response rating: 8
crabgrass; [5]
  Crabgrass plant response rating: 7
crabgrass; [6]
  Crabgrass plant response rating: 8
crabgrass; [7]
  Plant response rating, Crabgrass: 9
crabgrass; [8]
  Plant response rating, Crabgrass: 9
Sugar beet; [1]
  Plant response rating, Sugarbeets: 0
Sugar beet; [2]
  Plant response rating, Sugarbeets: 0
Sugar beet; [3]
  Sugarbeets plant response rating: 0
Sugar beet; [5]
  Sugarbeets plant response rating: 0
Sugar beet; [6]
  Sugarbeets plant response rating: 4
Sugar beet; [7]
  Plant response rating, Sugarbeets: 4
Sugar beet; [8]
  Plant response rating, Sugarbeets: 7
rice; [9]
  Plant response rating, Rice (0 to 10 scale, 0 is no effect, 10 is complete control): 0
rice; [10]
  Rice plant response rating (0 to 10 scale, 0 is no effect, 10 is complete control): 0
rice; [11]
  Rice plant response rating: 0
rice; [12]
  Rice plant response rating: 0

## CC(C)N(C(=O)n1oc(=O)n(CCC#N)c1=O)c1ccccc1 [Compound 436]
corn; [13]
  Corn plant response rating: 0
corn; [4]
  Corn plant response rating: 5
corn; [5]
  Plant response rating, Corn: 0
corn; [6]
  Plant response rating, Corn: 0
corn; [14]
  Corn plant response rating: 0
corn; [15]
  Corn plant response rating: 9
corn; [16]
  Corn plant response rating: 0
corn; [17]
  Corn plant response rating: 0
crabgrass; [13]
  Crabgrass plant response rating: 1
crabgrass; [4]
  Crabgrass plant response rating: 9
crabgrass; [5]
  Plant response rating, Crabgrass: 0
crabgrass; [6]
  Plant response rating, Crabgrass: 0
crabgrass; [14]
  Crabgrass plant response rating: 0
crabgrass; [15]
  Crabgrass plant response rating: 10
crabgrass; [16]
  Crabgrass plant response rating: 0
crabgrass; [17]
  Crabgrass plant response rating: 0
Sugar beet; [13]
  Sugarbeets plant response rating: 0
Sugar beet; [4]
  Sugarbeets plant response rating: 0
Sugar beet; [5]
  Plant response rating, Sugarbeets: 0
Sugar beet; [6]
  Plant response rating, Sugarbeets: 0
Sugar beet; [14]
  Sugarbeets plant response rating: 0
Sugar beet; [15]
  Sugarbeets plant response rating: 5
Sugar beet; [16]
  Sugarbeets plant response rating: 0
Sugar beet; [17]
  Sugarbeets plant response rating: 0
rice; Postemergence block (flood test species), Rate 250 g/ha, scale 0 to 10
  Rice plant response rating: 0
rice; Postemergence section (flood test species), Rate 500 g/ha, scale of 0 to 10 where 0 is no effect and 10 is complete control
  Rice plant response rating: 0
rice; Rate 62 g/ha, Postemergence (flood test), scale 0 to 10, 0 no effect, 10 complete control
  Rice plant response rating: 0
rice; Rate 125 g/ha, Postemergence section (flood test species), scale 0 to 10, 0 is no effect, 10 is complete control
  Rice plant response rating: 0

## CCOP(=O)(Cn1c(=O)on(C(=O)N(c2ccc(F)cc2)C(C)C)c1=O)OCC [Compound 587]
corn; [2]
  Plant response rating, Corn: 0
corn; [3]
  Corn plant response rating: 0
corn; [4]
  Plant response rating, Corn: 0
corn; [18]
  Corn plant response rating: 0
corn; [6]
  Corn plant response rating: 0
corn; Preemergence, Rate 250 g/ha
  Corn plant response rating (0 to 10 scale): 0
corn; [8]
  Corn plant response rating: 0
corn; [19]
  Plant response rating, Corn: 4
crabgrass; [2]
  Plant response rating, Crabgrass: 0
crabgrass; [4]
  Plant response rating, Crabgrass: 2
crabgrass; [18]
  Crabgrass plant response rating: 3
crabgrass; [6]
  Crabgrass plant response rating: 6
crabgrass; [8]
  Crabgrass plant response rating: 9
crabgrass; [19]
  Plant response rating, Crabgrass: 10
Sugar beet; [2]
  Plant response rating, Sugarbeets: 0
Sugar beet; [3]
  Sugarbeets plant response rating: 0
Sugar beet; [4]
  Plant response rating, Sugarbeets: 0
Sugar beet; [18]
  Sugarbeets plant response rating: 0
Sugar beet; [6]
  Sugarbeets plant response rating: 0
Sugar beet; [8]
  Sugarbeets plant response rating: 0
Sugar beet; [19]
  Plant response rating, Sugarbeets: 3
rice; [20]
  Rice plant response rating: 0
rice; [10]
  Rice plant response rating (0 to 10 scale, 0 is no effect, 10 is complete control): 0
rice; [11]
  Rice plant response rating: 0
rice; [12]
  Rice plant response rating: 0

## CCOC(=O)C(C)N(C(=O)n1oc(=O)n(C(C)C)c1=O)c1ccc(F)cc1 (stereo not shown) [Compound 302]
corn; [18]
  Corn plant response rating: 0
corn; Preemergence, Rate 125 g/ha
  Corn plant response rating (0 to 10 scale): 0
corn; [21]
  Corn plant response rating: 0
corn; [8]
  Corn plant response rating: 0
corn; [22]
  Corn plant response rating: 0
corn; [23]
  Plant response rating, Corn: 0
corn; Rate 500 g/ha, Postemergence, scale 0 to 10, 0 no effect, 10 complete control
  Corn plant response rating: 0
corn; [19]
  Plant response rating, Corn: 0
crabgrass; [18]
  Crabgrass plant response rating: 1
crabgrass; Preemergence, Rate 125 g/ha
  Crabgrass plant response rating (0 to 10 scale): 0
crabgrass; [21]
  Crabgrass plant response rating: 2
crabgrass; [8]
  Crabgrass plant response rating: 7
crabgrass; [22]
  Crabgrass plant response rating: 0
crabgrass; [23]
  Plant response rating, Crabgrass: 0
crabgrass; [19]
  Plant response rating, Crabgrass: 7
Sugar beet; [18]
  Sugarbeets plant response rating: 2
Sugar beet; Preemergence, Rate 125 g/ha
  Sugarbeets plant response rating (0 to 10 scale): 0
Sugar beet; [21]
  Sugarbeets plant response rating: 2
Sugar beet; [8]
  Sugarbeets plant response rating: 2
Sugar beet; [22]
  Sugarbeets plant response rating: 0
Sugar beet; [23]
  Plant response rating, Sugarbeets: 1
Sugar beet; [19]
  Plant response rating, Sugarbeets: 4
rice; [20]
  Rice plant response rating: 0
rice; Rate 125 g/ha, Pre-emergence, flood test species, scale 0 to 10 where 0 is no effect and 10 is complete control
  Rice plant response rating: 0
rice; [24]
  Rice plant response rating: 0
rice; [25]
  Rice plant response rating: 0

## CC(C)N(C(=O)n1oc(=O)n(Cc2nnc(Cl)s2)c1=O)c1ccc(F)cc1 [Compound 646]
corn; [1]
  Plant response rating, Corn: 0
corn; [2]
  Corn plant response rating: 0
corn; [3]
  Corn plant response rating: 0
corn; [4]
  Plant response rating, Corn: 0
corn; [26]
  Corn plant response rating: 0
corn; [6]
  Corn plant response rating: 0
corn; [7]
  Plant response rating, Corn: 0
corn; [8]
  Plant response rating, Corn: 0
crabgrass; [1]
  Plant response rating, Crabgrass: 0
crabgrass; [2]
  Crabgrass plant response rating: 0
crabgrass; [3]
  Crabgrass plant response rating: 0
crabgrass; [4]
  Plant response rating, Crabgrass: 1
crabgrass; [6]
  Crabgrass plant response rating: 0
crabgrass; [7]
  Plant response rating, Crabgrass: 0
crabgrass; [8]
  Plant response rating, Crabgrass: 0
Sugar beet; [1]
  Plant response rating, Sugarbeets: 0
Sugar beet; [2]
  Sugarbeets plant response rating: 0
Sugar beet; [26]
  Sugarbeets plant response rating: 0
Sugar beet; [6]
  Sugarbeets plant response rating: 0
Sugar beet; [7]
  Plant response rating, Sugarbeets: 0
Sugar beet; [8]
  Plant response rating, Sugarbeets: 0
rice; [9]
  Plant response rating, Rice (0 to 10 scale, 0 is no effect, 10 is complete control): 0
rice; [10]
  Rice plant response rating (0 to 10 scale, 0 is no effect, 10 is complete control): 0
rice; [11]
  Rice plant response rating: 0
rice; [12]
  Rice plant response rating: 0

## Cc1nc(Cl)sc1C(C)n1c(=O)on(C(=O)N(c2ccc(F)cc2)C(C)C)c1=O (stereo not shown) [Compound 401]
corn; [27]
  Plant response rating, Corn: 0
corn; [28]
  Plant response rating, Corn: 0
corn; [4]
  Corn plant response rating: 0
corn; [5]
  Plant response rating, Corn: 0
corn; [6]
  Plant response rating, Corn: 0
corn; [14]
  Corn plant response rating: 0
corn; [15]
  Corn plant response rating: 0
corn; [29]
  Corn plant response rating: 0
crabgrass; [27]
  Plant response rating, Crabgrass: 0
crabgrass; [28]
  Plant response rating, Crabgrass: 2
crabgrass; [4]
  Crabgrass plant response rating: 3
crabgrass; [5]
  Plant response rating, Crabgrass: 0
crabgrass; [6]
  Plant response rating, Crabgrass: 2
crabgrass; [14]
  Crabgrass plant response rating: 8
crabgrass; [15]
  Crabgrass plant response rating: 10
crabgrass; [29]
  Crabgrass plant response rating: 0
Sugar beet; [28]
  Plant response rating, Sugarbeets: 0
Sugar beet; [4]
  Sugarbeets plant response rating: 0
Sugar beet; [5]
  Plant response rating, Sugarbeets: 0
Sugar beet; [6]
  Plant response rating, Sugarbeets: 0
Sugar beet; [14]
  Sugarbeets plant response rating: 0
Sugar beet; [15]
  Sugarbeets plant response rating: 0
Sugar beet; [29]
  Sugarbeets plant response rating: 0
rice; [9]
  Plant response rating, Rice (0 to 10 scale, 0 is no effect, 10 is complete control): 0
rice; [10]
  Rice plant response rating (0 to 10 scale, 0 is no effect, 10 is complete control): 0
rice; [24]
  Rice plant response rating: 0
rice; [25]
  Rice plant response rating: 0

Reference: patent US6737383B1, “Herbicidal oxadiazolidines” (priority 1999, dated 2004)
